# Laboratory results as given in ChEMBL document CHEMBL1201862, “PubChem BioAssay data set” (2004).
# Calls of active or inactive are those of the source.
# How the values were obtained:
# [1] = reduction of Shn3 3'UTR-driven luciferase in osteoblasts – cell-based, Clone20 osteoblasts, firefly luciferase, cherry-picked, dose response (AID 624132); type: functional;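 note: firefly luciferase luminescence from reporter carrying the Shn3 3'UTR in osteoblasts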
# [2] = target: T1, Heat shock factor protein 1 (Mus musculus, UniProt P38532); assay: decrease of HSF1-responsive luciferase luminescence – cell-based, NIH3T3, dose retest, confirmation (AID 2382); type: functional;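 note: NIH3T3 fibroblasts with HSF1-driven luciferase reporter stressed by proteasome inhibitor MG132; luminescence from HSF1-driven luciferase expression after 8 hours of MG132 stress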
# T1 sequence (P38532 whole entry): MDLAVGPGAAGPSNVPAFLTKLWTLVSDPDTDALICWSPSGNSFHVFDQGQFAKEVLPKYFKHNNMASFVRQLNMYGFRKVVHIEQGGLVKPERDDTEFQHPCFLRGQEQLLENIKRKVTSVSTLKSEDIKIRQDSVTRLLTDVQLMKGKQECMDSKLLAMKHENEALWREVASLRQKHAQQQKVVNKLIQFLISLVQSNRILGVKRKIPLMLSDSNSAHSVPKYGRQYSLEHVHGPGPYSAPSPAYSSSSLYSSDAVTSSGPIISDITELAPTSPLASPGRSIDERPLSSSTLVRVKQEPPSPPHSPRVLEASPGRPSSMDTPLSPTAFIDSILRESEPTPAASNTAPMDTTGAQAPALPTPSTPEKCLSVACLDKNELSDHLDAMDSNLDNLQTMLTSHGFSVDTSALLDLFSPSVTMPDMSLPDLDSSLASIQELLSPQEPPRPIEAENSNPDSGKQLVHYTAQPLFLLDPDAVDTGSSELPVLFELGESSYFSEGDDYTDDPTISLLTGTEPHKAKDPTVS
# [3] = target: T2, Replicative DNA helicase DnaB (Mycobacterium tuberculosis, UniProt P9WMR3); assay: DnaB intein splicing inhibitors, dose response, biochemical, cell-free fluorescence (AID 449749); type: functional
# T2 sequence (P9WMR3 whole entry): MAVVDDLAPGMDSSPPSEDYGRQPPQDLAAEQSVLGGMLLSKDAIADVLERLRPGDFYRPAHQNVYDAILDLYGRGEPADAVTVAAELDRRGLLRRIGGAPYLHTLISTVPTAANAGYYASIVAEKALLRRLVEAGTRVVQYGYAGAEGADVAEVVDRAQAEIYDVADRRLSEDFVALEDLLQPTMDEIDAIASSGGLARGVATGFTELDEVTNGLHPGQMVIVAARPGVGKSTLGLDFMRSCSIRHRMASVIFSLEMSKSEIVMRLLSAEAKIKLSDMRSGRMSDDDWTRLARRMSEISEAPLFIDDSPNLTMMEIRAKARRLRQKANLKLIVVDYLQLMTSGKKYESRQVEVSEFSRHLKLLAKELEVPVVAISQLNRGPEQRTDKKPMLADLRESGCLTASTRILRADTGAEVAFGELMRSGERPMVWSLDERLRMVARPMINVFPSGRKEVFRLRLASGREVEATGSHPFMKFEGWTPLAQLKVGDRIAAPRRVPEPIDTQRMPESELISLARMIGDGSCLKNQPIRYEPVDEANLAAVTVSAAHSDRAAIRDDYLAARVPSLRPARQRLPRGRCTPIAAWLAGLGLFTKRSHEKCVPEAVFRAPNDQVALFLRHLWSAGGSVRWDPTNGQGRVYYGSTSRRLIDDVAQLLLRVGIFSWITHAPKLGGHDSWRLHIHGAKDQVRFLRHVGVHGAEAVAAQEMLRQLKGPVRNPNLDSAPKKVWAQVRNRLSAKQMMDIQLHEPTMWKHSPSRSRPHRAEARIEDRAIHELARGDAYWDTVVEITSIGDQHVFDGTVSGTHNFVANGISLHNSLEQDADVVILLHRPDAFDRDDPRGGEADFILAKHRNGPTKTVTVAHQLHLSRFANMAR
# [4] = target: T3, Protein RecA (Mycobacterium tuberculosis, UniProt P9WHJ3); assay: Fluorescence Cell-Free Homogeneous Dose Retest to Identify Inhibitors of RecA-Intein Splicing Activity. [Related pubchem assays (depositor defined):AID2097, AID2223, AID489010, AID492950]; type: functional
# T3 sequence (P9WHJ3 whole entry): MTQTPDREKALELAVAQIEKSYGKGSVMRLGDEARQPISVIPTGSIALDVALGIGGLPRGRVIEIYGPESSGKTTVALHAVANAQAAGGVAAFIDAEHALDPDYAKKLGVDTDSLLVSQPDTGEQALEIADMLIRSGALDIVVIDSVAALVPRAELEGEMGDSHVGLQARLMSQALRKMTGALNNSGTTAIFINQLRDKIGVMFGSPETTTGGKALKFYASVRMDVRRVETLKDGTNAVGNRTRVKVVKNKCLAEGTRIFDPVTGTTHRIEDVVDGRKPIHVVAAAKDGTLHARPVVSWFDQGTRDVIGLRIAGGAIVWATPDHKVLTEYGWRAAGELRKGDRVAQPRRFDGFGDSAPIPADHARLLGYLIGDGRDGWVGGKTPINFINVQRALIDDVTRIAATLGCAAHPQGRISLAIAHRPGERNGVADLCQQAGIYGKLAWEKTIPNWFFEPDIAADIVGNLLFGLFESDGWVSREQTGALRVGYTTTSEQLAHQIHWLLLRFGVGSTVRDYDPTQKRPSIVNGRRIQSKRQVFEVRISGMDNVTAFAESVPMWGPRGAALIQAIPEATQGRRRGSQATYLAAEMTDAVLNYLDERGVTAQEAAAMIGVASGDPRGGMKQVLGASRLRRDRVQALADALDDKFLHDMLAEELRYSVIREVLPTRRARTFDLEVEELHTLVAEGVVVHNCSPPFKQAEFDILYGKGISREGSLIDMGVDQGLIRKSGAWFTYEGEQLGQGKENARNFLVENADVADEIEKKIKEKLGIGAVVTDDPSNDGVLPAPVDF
# [5] = target: Cytochrome P450 2C19 (Homo sapiens, UniProt P33261); assay: Cytochrome panel assay with activity outcomes. Panel member name: p450-cyp2c19 Compounds with AC50 equal or less than 10 uM are considered active; type: functional
# [6] = target: T4, Cytochrome P450 1A2 (Homo sapiens, UniProt P05177);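 note: PubChem cytochrome P450 panel assay, CYP1A2 panel member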
# T4 sequence (P05177 whole entry): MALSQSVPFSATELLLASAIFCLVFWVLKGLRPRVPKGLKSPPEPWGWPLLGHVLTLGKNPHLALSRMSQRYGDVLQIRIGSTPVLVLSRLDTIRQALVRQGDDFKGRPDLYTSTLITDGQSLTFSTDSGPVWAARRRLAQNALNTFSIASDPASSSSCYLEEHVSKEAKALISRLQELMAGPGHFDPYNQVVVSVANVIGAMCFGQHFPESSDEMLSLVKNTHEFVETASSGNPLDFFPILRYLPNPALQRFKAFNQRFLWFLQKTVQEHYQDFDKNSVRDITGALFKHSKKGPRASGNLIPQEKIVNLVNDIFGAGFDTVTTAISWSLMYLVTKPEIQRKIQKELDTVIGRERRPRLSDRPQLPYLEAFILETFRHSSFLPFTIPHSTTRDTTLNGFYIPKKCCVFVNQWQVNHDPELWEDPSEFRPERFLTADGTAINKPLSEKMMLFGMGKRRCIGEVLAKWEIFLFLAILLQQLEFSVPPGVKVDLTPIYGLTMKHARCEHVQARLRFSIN
# [7] = system: INS1; assay: INS-1E survival protection against cytokine death – cell-based, luminescence, retest, dose response (AID 449756); type: functional; settings: Rattus norvegicus;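 note: cell death triggered by IL-1 beta plus TNF-alpha plus IFN-gamma mixture; protective hits raise ATP signal compared with cytokine alone wells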
# Chain of Cytochrome P450 2C19 (P33261 whole entry): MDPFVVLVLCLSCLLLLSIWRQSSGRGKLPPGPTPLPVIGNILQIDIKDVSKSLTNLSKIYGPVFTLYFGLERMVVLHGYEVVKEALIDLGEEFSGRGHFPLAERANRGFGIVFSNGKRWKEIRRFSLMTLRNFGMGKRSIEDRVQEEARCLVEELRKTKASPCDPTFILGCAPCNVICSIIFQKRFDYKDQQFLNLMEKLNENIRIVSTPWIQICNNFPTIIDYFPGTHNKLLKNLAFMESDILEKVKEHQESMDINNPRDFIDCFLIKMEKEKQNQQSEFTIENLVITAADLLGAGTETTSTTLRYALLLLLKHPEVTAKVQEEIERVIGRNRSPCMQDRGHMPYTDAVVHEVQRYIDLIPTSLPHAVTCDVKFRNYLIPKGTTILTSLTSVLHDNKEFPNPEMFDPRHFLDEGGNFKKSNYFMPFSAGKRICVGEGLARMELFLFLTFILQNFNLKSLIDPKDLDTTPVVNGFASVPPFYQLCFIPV
compound,measurement,setting,value
CCCC(c1nnnn1Cc1ccc(OC)cc1)N1CCN(c2ccccc2)CC1 (configuration not stated),AC50,[1],31.9 µM (active)
CC1Cc2ccccc2N1C(=O)C12CCC(C)(C(=O)C1)C2(C)C (configuration not stated),EC50,[2],> 195 µM (not active)
CC(C)(C)Nc1nc(Cl)nc(N(C#N)CN2C(=O)c3ccccc3S2(=O)=O)n1,AC50,[3],15.5 µM (active)
same,EC50,[4],18.4 µM (active)
O=C(OCC1CC(c2ccccc2)=NO1)c1ccc(Cl)cc1 (configuration not stated),AC50,[5]; read-out: AC50,7.08 µM (inconclusive)
same,AC50,[6],2.82 µM (inconclusive)
CC(=O)Nc1ccc(Cc2ccncc2)cc1,EC50,[2],> 195 µM (not active)
O=[N+]([O-])c1c(NCc2ccco2)ccc2nonc12,AC50,[3],8.52 µM (active)
same,EC50,[4],10.1 µM (active)
O=C(Nc1ccc(N2CCOCC2)cc1)c1cc(-c2ccncc2)nc2ccccc12,EC50,[2],> 195 µM (not active)
COc1ccc(NC(=O)c2cccnc2)cc1OCC(C)C,EC50,[2],> 195 µM (not active)
CC(C)C[C@@H](CC#N)N1CCN(Cc2ccccc2)CCC1=O,EC50,[2],> 195 µM (not active)
O=C(Nc1ccc(N2C(=O)C3C4C=CC(C4)C3C2=O)cc1)Nc1nncs1 (configuration not stated),EC50,[2],> 195 µM (not active)
COC(=O)[C@@]1(Cc2ccccc2)[C@@H]2C(=CC(=O)[C@H]2CC(=O)C(=O)N(C)C)CN1C(=O)c1ccccc1,AC50,[3],< 0.018 µM (active)
same,EC50,[4],5.12 µM (active)
CCCC(=O)N(CCN(C(=O)CCC)c1ccccc1)c1ccccc1,AC50,[7],183 µM (active)
COC(=O)c1ccc(CNC(=O)C(NC(=O)c2ccco2)C(C)C)cc1 (configuration not stated),EC50,[2],> 195 µM (not active)
COCCn1c(C(=O)N2CCCC2)cc2c1C[C@H]1CN(C(=O)c3ccccc3)[C@@](Cc3ccc(F)cc3)(C(=O)OC)[C@@H]21,AC50,[5]; read-out: AC50,25.1 µM (inconclusive)
same,AC50,[6],31.6 µM (inconclusive)
O=[N+]([O-])c1ccc2ncccc2c1CCc1c([N+](=O)[O-])ccc2ncccc12,AC50,[6],3.16 µM (inconclusive)
N=C(N)SCCCN,AC50,[5],inconclusive
same,AC50,[6],6.31 µM (inconclusive)
Cc1ccc(C2C(C#N)=C(N)Oc3n[nH]c(-c4cccs4)c32)cc1 (configuration not stated),AC50,[3],4.21 µM (active)
same,EC50,[4],1.12 µM (active)
CC1(C)CCC(C)(C)c2c1ccc(O)c2Cc1c(O)ccc2c1C(C)(C)CCC2(C)C,AC50,[6],5.01 µM (inconclusive)
Cn1c(=O)c2cn(Cc3ccc(Cl)cc3)cc2n(C)c1=O,EC50,[2],> 195 µM (not active)
Cc1ccc(S(=O)(=O)N2CCC(C(=O)NNC(=O)c3ccncc3)CC2)cc1,EC50,[2],> 195 µM (not active)
Cc1ccc(C(=O)n2cnc3ccccc32)cc1C,AC50,[3],37.7 µM (active)
same,EC50,[4],124 µM (active)
COC(=O)c1ccc(CN2CCN(CCc3ccccc3)C(CCO)C2)cc1 (configuration not stated),EC50,[2],> 195 µM (not active)
CCOc1ccc(N(C)S(=O)(=O)c2ccc(C)c(C(=O)OCC(=O)c3c[nH]c4ccccc34)c2)cc1,AC50,[7],11.3 µM (active)
CCSC1=NCCN1C(=O)C(C)(C)Oc1ccc(Cl)cc1,AC50,[7],> 260 µM (inactive)
CS(=O)(=O)Nc1cccc(-c2ccc3ncnc(NC4CCNCC4)c3c2)c1,AC50,[6],31.6 µM (inconclusive)
C=CCN(CC=C)Cc1c[nH]c2ccccc12,AC50,[7],> 260 µM (inactive)
Cc1nc2ccccc2c2oc(C(=O)Nc3ccc(C(C)C)cc3)cc12,AC50,[7],18.8 µM (active)
C[C@@](N)(C(=O)O)c1ccc(P(=O)(O)O)cc1,AC50,[6],39.8 µM (inconclusive)
CCOC(=O)C1CCN(C(=O)CC(C)c2ccccc2)CC1 (configuration not stated),EC50,[2],13.5 µM (active)
Fc1ccc(NC(S)=NCc2ccccc2)cc1,EC50,[2],> 195 µM (not active)
Cc1cc(C(=O)NNC(=S)NC(C)c2ccccc2)c2ccccc2n1 (configuration not stated),AC50,[5]; read-out: AC50,22.4 µM (inconclusive)
same,AC50,[6],31.6 µM (inconclusive)
OC1(c2ccc(Br)cc2)CCN(Cc2cccc(Br)c2)CC1,EC50,[2],> 195 µM (not active)
O=C1c2ccccc2C(=O)N1CCSC(=S)N1CCOCC1,AC50,[6],3.16 µM (inconclusive)
CCOc1ccc(NC(=O)CCCNC(=O)Cn2cnc3sc(C)c(C)c3c2=O)cc1,EC50,[2],> 195 µM (not active)
O=C(c1c[nH]c(C(=O)C(Cl)(Cl)Cl)c1)c1ccc(F)cc1Cl,AC50,[3],13 µM (active)
same,EC50,[4],4.49 µM (active)
COCCn1c(SCC(=O)c2cc(C)n(C)c2C)nc2ccccc2c1=O,EC50,[2],> 195 µM (not active)
O=C(c1cccc(C(F)(F)F)c1)C1CCCN(Cc2ncc[nH]2)C1 (configuration not stated),AC50,[3],> 380 µM (inactive)
same,EC50,[4],> 380 µM (inactive)
Cc1cc[n+](CC(=O)Nc2cc(C(F)(F)F)ccc2Cl)cc1,AC50,[5]; read-out: AC50,3.98 µM (inconclusive)
same,AC50,[6],15.8 µM (inconclusive)
O=S(=O)(c1ccc(F)c(F)c1F)N1CCN(c2ncnc3sccc23)CC1,AC50,[7],4.95 µM (active)
Cc1ccc(C)c(/N=C2\C(Cl)=C(O)OC2OC(=O)c2ccco2)c1 (configuration not stated),AC50,[3],20 µM (active)
same,EC50,[4],9.37 µM (active)
CCOc1ccc(N(C(C)C(=O)N/N=C(\C)c2cccc(NC(=O)c3ccccc3)c2)S(C)(=O)=O)cc1 (configuration not stated),AC50,[6],14.1 µM (inconclusive)
CC(C)(C)c1cnnn1-c1ccc(/C=N/Nc2ccc([N+](=O)[O-])cc2)cc1,AC50,[7],4.33 µM (active)
CN1CCN(c2ccc([N+](=O)[O-])c3[nH]o[n+](=O)c23)CC1,AC50,[6],0.398 µM (inconclusive)
CCNC(=O)c1ccc(-n2nc(C)cc2-c2ccccc2)cc1,AC50,[6],14.1 µM (inconclusive)
